Values quoted from earlier work as cited in the CATMoS acute toxicity set (Mansouri et al. 2021).
Several values for one entry are separate records, joined by “and”; a condition that tells them apart may be missing. Identical values can stand only once. Where a SMILES comes first, the peptide text is derived from it. Bridges are numbered along the chain shown (N, C = ends). [ ]: non-standard residue; d: D form. The star is where a group is joined. X1 = CC[C@H](C)CCCCC(=O)*; Dab = NCC[C@H](N)C(=O)O

Experiment: rat acute oral toxicity
Settings: in vivo

Compound | LD50
Cc1cc(O)c(C(C)(C)C)cc1C | 1030 mg/kg
CCCCC[C@H](O)/C=C/[C@H]1[C@H](O)CC(=O)[C@@H]1CCCCCCC(=O)O | 228 mg/kg
COc1ccc2c(c1)N(CCCN(C)C)c1ccccc1S2 | 730 mg/kg
Fc1c(Cl)c(Br)c2[nH]c(C(F)(F)F)nc2c1Cl | 6.26 mg/kg
CC(=O)C(N=Nc1cc(Cl)c(-c2cc(Cl)c(N=NC(C(C)=O)C(=O)Nc3ccc(C)cc3C)cc2Cl)cc1Cl)C(=O)Nc1ccc(C)cc1C (stereo not drawn) | 2230 mg/kg
CCCCC[C@H](O)/C=C/[C@@H]1[C@@H](C/C=C\CCCC(=O)O)[C@@H](O)C[C@H]1O | 1170 mg/kg
CC(=O)CCc1ccc(-c2ccccc2)cc1 | 1030 mg/kg
CCOC(=O)[C@H](CCc1ccccc1)N[C@@H](C)C(=O)N(CC(=O)O)C1Cc2ccccc2C1 | 8260 mg/kg
c1ccc(NC[Si]23OCCN(CCO2)CCO3)cc1 | 0.328 mg/kg
CC(=O)NC(=O)c1ccccc1O | 1800 mg/kg
C[C@]12C=CC(=O)C=C1CC[C@@H]1[C@@H]2[C@@H](O)C[C@@]2(C)[C@H]1CC[C@]2(O)C(=O)COC(=O)CCCc1ccc(N(CCCl)CCCl)cc1 | 530 mg/kg
CCc1ccc(C(=O)c2ccccc2)c(C(=O)O)c1 | 4450 mg/kg
C=CCNC(=O)OCC(O)C1COc2ccccc2O1 (stereo not drawn) | 1500 mg/kg
CC(=O)OC1CC2CCC3C(CCC4(C)C3CC(OC(C)=O)C4[N+]3(C)CCCCC3)C2(C)CC1[N+]1(C)CCCCC1 (stereo not drawn) | 202 mg/kg
CCC1(c2ccccc2)C(=O)N=C(O)NC1=O (stereo not drawn) | 150 mg/kg
CC(=O)ON(C(=O)OC(C)C)c1ccccc1 | 3400 mg/kg
COP(=S)(OC)Sc1ccc(Cl)cc1 | 500 mg/kg
CN1C(=O)OC(C)(C)C1=O | 2140 mg/kg
CCC(CC)COCCC(=O)O | 3730 mg/kg
CN(C)CCn1c2ccccc2c(=O)c2c([N+](=O)[O-])cccc21 | 41 mg/kg
COP(=S)(OC)SCOC(C)=O | 93 mg/kg
Cc1ccc(O)c(-n2nc3ccccc3n2)c1 | 10000 mg/kg
Nc1c(CC(=O)O)cccc1C(=O)c1ccccc1 | 311 mg/kg

Compound | LD50
CN=C(O)O/N=C(/C)C(C)(C)[N+](=O)[O-] | 13 mg/kg
CC=Cc1ccc(OCC)c(O)c1 | 2400 mg/kg
BrCC=CCBr | 75 mg/kg
CCCCNCC(O)COc1ccc(-c2c(-c3ccccc3)c(=O)oc3cc(OC)ccc23)cc1 (stereo not drawn) | 500 mg/kg
NC(=O)CCN1CCN(C2Cc3cc(Cl)ccc3Sc3cc(F)ccc32)CC1 (stereo not drawn) | 472 mg/kg and 490 mg/kg
N#CC(F)(F)C(F)(F)C(F)(F)C#N | 2600 mg/kg
OC(CNc1ccccn1)c1ccccc1 (stereo not drawn) | 756 mg/kg
CC(C)(C)NCCCCN | 810 mg/kg
OC[C@@H](O)[C@@H](O)[C@H](O)[C@H](O)CO | 13500 mg/kg
C=CC(=O)OCCOC(=O)C=C | 300 mg/kg
O=[N+]([O-])c1ccc(C=Cc2ccc([N+](=O)[O-])cc2S(=O)(=O)O)c(S(=O)(=O)O)c1 | 12600 mg/kg
CNCc1cccc2ccccc12 | 50 mg/kg
CCNc1nc(NC(C)C)nc(OC)n1 | 1460 mg/kg
O=C1C=CC(=O)N1c1cccc(N2C(=O)C=CC2=O)c1 | 1370 mg/kg
OCCN(CCO)c1nc(-c2ccccc2)c(-c2ccccc2)o1 | 11400 mg/kg
C=CC(=O)OCCN=C=O | 200 mg/kg
CCOC(=O)CI | 50 mg/kg
O=S(=O)(O)c1cc(Cl)ccc1C=Cc1ccc(-n2nc3ccc4c(S(=O)(=O)O)cccc4c3n2)cc1S(=O)(=O)O | 19900 mg/kg
c1ccc(C2=C(c3ccccc3)SCCO2)cc1 | 3000 mg/kg
COC(=O)c1c(Cl)c(Cl)c(C(=O)SC)c(Cl)c1Cl | 3300 mg/kg
CCCCC(CC)COCCO (stereo not drawn) | 3080 mg/kg
CC1(C)S[C@@H]2[C@H](NC(=O)C3(N)CCCCC3)C(=O)N2[C@H]1C(=O)O | 5010 mg/kg
O=C(O)c1nn(Cc2ccc(Cl)cc2Cl)c2ccccc12 | 1700 mg/kg

Compound | LD50
Cc1ccccc1N=C=O | 1600 mg/kg
CCOC(=O)CCCCCCCCC(=O)OCC | 14500 mg/kg
CCCC(C)C(=O)O (stereo not drawn) | 2040 mg/kg
Cc1ccc2c(c1)[C@]13CCCC[C@@H]1[C@H](C2)N(C)CC3 | 690 mg/kg
C1COC(NC(C2CC2)C2CC2)=N1 | 295 mg/kg
COP(=O)(OC)O/C(=C\Cl)c1ccc(Cl)cc1Cl | 97.5 mg/kg
CO[C@H]1CC[C@H](O[C@@H]2C[C@]3(C[C@H](O)[C@@H](C)[C@@H]([C@@H](C)C=C(C)C(=O)[C@H](C)C[C@H](C)C(=O)O)O3)O[C@]2(C)[C@H]2CC[C@@H](C)C3(O[C@@H]([C@@H]4O[C@](O)(CO)[C@@H](C)C[C@H]4C)C[C@@H]3C)O2)O[C@@H]1C (stereo partly drawn) | 7.5 mg/kg
Fc1ccc(C(c2ccc(F)cc2)N2CCN(C/C=C/c3ccccc3)CC2)cc1 | 503 mg/kg
O=C1CCC(c2ccc(-n3ccnc3)cc2)=NN1 | 125 mg/kg
CCCOP(=S)(OCCC)Oc1ccc(S(C)=O)cc1 (stereo not drawn) | 50 mg/kg
CC/C=C\CCOCC=O | 4100 mg/kg
CN(C)S(=O)(=O)c1c(Cl)c(Cl)c(Cl)c2[nH]c(C(F)(F)F)nc12 | 4.77 mg/kg
CC1(C)S[C@@H]2[C@H](NC(=O)C(C(=O)Oc3ccc4c(c3)CCC4)c3ccccc3)C(=O)N2[C@H]1C(=O)O (stereo partly drawn) | 4450 mg/kg
C[C@H]1O[C@@H](n2cc(F)c(=O)[nH]c2=O)[C@H](O)[C@@H]1O | 3390 mg/kg
COc1cc(C=CC(=O)N2CCN(CC(=O)NC(C)C)CC2)cc(OC)c1OC | 1300 mg/kg
CCCN(CCCCOC(=O)c1ccc(OC)c(OC)c1)C1CCc2cc(OC)ccc2C1 (stereo not drawn) | 707 mg/kg
CCC(O)CCO (stereo not drawn) | 20000 mg/kg
CN(C)CCCN1c2ccccc2Sc2ccccc21 | 350 mg/kg and 400 mg/kg
CCOC(=O)CC(CC(=O)OCC)(OC(C)=O)C(=O)OCC | 7000 mg/kg
Cc1c(N(C)CS(=O)(=O)O)c(=O)n(-c2ccccc2)n1C | 3000 mg/kg
CC[C@@H]1C(=O)OC[C@@H]1Cc1cncn1C | 911 mg/kg and 402 mg/kg
CCCCNC(=O)n1c(NC(=O)OC)nc2ccccc21 | 10000 mg/kg
O=C1O[C@@H]2[C@@H](O)[C@H](O)O[C@@H]2[C@H]1O | 10700 mg/kg

Compound | LD50
CCCC(Cc1ccccc1)N1CCCC1 (stereo not drawn) | 278 mg/kg and 157 mg/kg
CNc1c(Cl)cc(C(=O)NC2CC2)cc1Cl | 262 mg/kg
CN(C)CCN(Cc1ccccc1)c1ccccn1 | 469 mg/kg
COc1cc(C(=O)NC2CCCNC2)cc(OC)c1OC (stereo not drawn) | 2100 mg/kg
O=C(OOC(=O)c1ccccc1)c1ccccc1 | 7710 mg/kg
CC(C)CCP(=O)(CCC(C)C)CCC(C)C | 2240 mg/kg
CCCCSC(=O)Oc1c(C(C)CC)cc([N+](=O)[O-])cc1[N+](=O)[O-] (stereo not drawn) | 147 mg/kg
N/C(=N\c1c([N+](=O)[O-])cnc2ccccc12)N1CCOCC1 | 4000 mg/kg
N#Cc1ccccc1CN1CCc2sccc2C1 | 228 mg/kg
C=C(C)C(=O)OCC(CCCC)CCCCCC (stereo not drawn) | 26000 mg/kg
Oc1cc(Cl)c(Cl)cc1Cl | 1620 mg/kg
CCOC(=O)C(C)(C)Oc1ccc(Cl)cc1 | 940 mg/kg
CCCCCC(C)(O)CC (stereo not drawn) | 3400 mg/kg
CCOC(=O)C1(c2ccccc2)CCN(CCc2ccc(N)cc2)CC1 | 175 mg/kg
CCCOC/C(=N\c1ccc(Cl)cc1C(F)(F)F)n1ccnc1 | 715 mg/kg
O=C(O)[C@H](O)[C@@H](O)[C@H](O)[C@H](O)CO | 10400 mg/kg
C/C=C\COCN(C(=O)CCl)c1c(CC)cccc1CC | 1630 mg/kg
Cc1cccc(NC(N)=O)c1 | 1330 mg/kg
O=C(OCC(Br)(Br)Br)c1ccco1 | 1500 mg/kg
CN(C)CCCC1c2ccccc2Nc2ccc(Cl)cc21 (stereo not drawn) | 379 mg/kg
CC(C)(C)NC[C@H](O)COc1nsnc1N1CCOCC1 | 1030 mg/kg
CCC(=O)OC(C)c1ccccc1 (stereo not drawn) | 5200 mg/kg
CCC(CC)CO | 1850 mg/kg

Compound | LD50
CC(=O)OCCN(CCOC(C)=O)c1ccccc1 | 2150 mg/kg
NC(=O)c1cc([N+](=O)[O-])cc([N+](=O)[O-])c1 | 1250 mg/kg
CC[C@H](C)CCCCC(=O)N[C@@H](CCN)C(=O)N[C@H](C(=O)N[C@@H](CCN)C(=O)N[C@H]1CCNC(=O)[C@@H]([C@H](C)O)NC(=O)[C@H](CCN)NC(=O)[C@H](CCN)NC(=O)[C@H](CC(C)C)NC(=O)[C@@H](CC(C)C)NC(=O)[C@H](CCN)NC1=O)[C@@H](C)O (X1-[Dab]T[Dab][Dab][Dab][dL]L[Dab][Dab][dT]; lactam 4-C) | 121 mg/kg
CCCC(=O)Nc1c(I)cc(I)c(CC(CC)C(=O)O)c1I (stereo not drawn) | 6500 mg/kg
CCN1C=CC(=C2C(=O)c3ccccc3C2=O)C=C1 | 330 mg/kg
N#CCNCC#N | 710 mg/kg
CNC(=O)Oc1ccc(NC(=O)OC)c(C(C)C)c1 | 27 mg/kg
Cn1c(=O)c2c(ncn2CC2SCCS2)n(C)c1=O | 1840 mg/kg
COC(=O)C1CCCCC1 | 3880 mg/kg
CC(C)(C)c1cc([N+](=O)[O-])cc(C(C)(C)C)c1O | 250 mg/kg
CCCCOCCOC(=O)COc1cc(Cl)c(Cl)cc1Cl | 500 mg/kg
O=[N+]([O-])c1nccn1CC(O)CO (stereo not drawn) | 5080 mg/kg
C1CSCCO1 | 2830 mg/kg
c1ccc2c(c1)Cc1ccccc1N2 | 2140 mg/kg
CCSc1nc(=O)n(CC(C)(C)C)c(=O)n1N | 3500 mg/kg
Nc1ccc(Cl)c([N+](=O)[O-])c1 | 400 mg/kg
CCCOc1ccc(C=CC(=O)OCC)cc1OC | 978 mg/kg
COC(C)(C)CCCC(C)C(C)O (stereo not drawn) | 4490 mg/kg
N[C@@H](CCC(=O)O)C(=O)O | 14700 mg/kg
CCCCOC(C1=NCCCN1)c1ccccc1 (stereo not drawn) | 310 mg/kg
COc1ccc2c3c1O[C@H]1[C@@H](O)C=C[C@H]4[C@@H](C2)N(C)CC[C@@]341 | 85 mg/kg
CC(C)CCCC(C)NN (stereo not drawn) | 108 mg/kg
Cc1cc(S(=O)(=O)O)cc(C)c1O | 2650 mg/kg

Compound | LD50
CNC(=O)Oc1ccc(C)c(C)c1 | 290 mg/kg
ClCC(Cl)(Cl)CCl | 6300 mg/kg
Nc1cccc2cc(S(=O)(=O)O)ccc12 | 14200 mg/kg
CCCCN(CCCC)CCC(O)c1cc2c(Cl)cc(Cl)cc2c2cc(C(F)(F)F)ccc12 (stereo not drawn) | 3400 mg/kg
CCOP(=S)(CCl)Oc1ccc(C#N)cc1OC (stereo not drawn) | 71 mg/kg
CCSCCSP(=S)(OC)OC | 40 mg/kg
C/C=N/N(C)C=O | 320 mg/kg
CC(=O)OCCC1CCCCC1 | 3200 mg/kg
CNC(=O)Oc1cc([N+](C)(C)C)ccc1C | 2.5 mg/kg
CN(CCCCCCN(C)C(=O)Oc1ccc[n+](C)c1)C(=O)Oc1ccc[n+](C)c1 | 10 mg/kg
Cc1ncc([N+](=O)[O-])n1CC(O)CCl (stereo not drawn) | 1780 mg/kg
CCN(CC)CCNC(=O)c1cc(S(C)(=O)=O)ccc1OC | 4840 mg/kg
CS(=O)(=O)Oc1ccc(Cl)cc1Cl | 2790 mg/kg
CCOC(=S)C=Cc1ccc(OC)cc1 | 930 mg/kg
CC(Cl)COP(=O)(OCC(C)Cl)OCC(C)Cl (stereo not drawn) | 1020 mg/kg
Nc1nc(=S)ss1 | 3050 mg/kg
CCCCOC(=O)C1CC1OCCCC (stereo not drawn) | 24 mg/kg
CCCCCCCCCCCCCC[N+](C)(C)C | 3900 mg/kg
